Columns and labels:
[1] = Release of timolol from polymeric reservoir with and without ethylene-methyl acrylate membranes (Example IV); format: physicochemical
Description: FIG. 11 is a graph of timolol release versus time (time versus accumulation) from an ADMEX® 760 reservoir without the use of a control membrane as set forth in Example IV. The graph indicated by reference numeral 111 is the graph of mg/cm^2 of timolol release versus hours. The basis of this graph is more specifically set forth in Example IV.
FIG. 13 is a series of graphs (time versus flux) of timolol release rate through control membranes consisting of copolymers of ethylene and methyl acrylate; 5% and 7% with 1.25 mils thickness and 2.5 mils thickness as more specifically set forth in Example IV. The graph indicated by reference numeral 130 is the graph for a membrane having 7% methyl acrylate repeating monomeric units and a membrane of thickness 1.25 mils. The graph indicated by reference numeral 131 is the graph for use of a membrane containing 5% methyl acrylate repeating monomeric units with a thickness of 1.25 mils. The graph indicated by reference numeral 132 is the graph for the use of a membrane containing 7% methyl acrylate repeating monomeric units and having a thickness of 2.5 mils. The graph indicated by reference numeral 133 is the graph for a membrane containing 5% methyl acrylate repeating monomeric units and having a thickness of 2.5 mils.

[2] = system of European Patent 186,071; cited from earlier work
[3] = Flux through human skin from articles of FIG. 4 (Example V); settings: reservoir 5% drug
[4] = even at higher clonidine concentrations
[5] = cited from earlier work

## CC(C)(C)NC[C@H](O)COc1nsnc1N1CCOCC1 [timolol]
[1]; 5% and 7% methyl acrylate, 1.25 and 2.5 mils thickness
  release of timolol from the reservoir through ethylene-methyl acrylate membranes: Relatively controlled and constant release of the drug was obtained for a period of seven days
[1]; in the absence of a membrane, ADMEX 760 reservoir
  release of timolol from a polymeric reservoir into an aqueous sink: very high and followed typical first order kinetics
[1]; use of ethylene methyl acrylate membranes
  release behavior of timolol from a polymeric reservoir: altered by the use of ethylene methyl acrylate membranes
[2]
  irritation to the skin on transdermal application: substantially no irritation to the skin

## CC(C)(C)NCC(O)c1cc(Cl)c(N)c(Cl)c1 (centres unmarked) [CLENBUTEROL]
[3]; with membrane 1.25 mil EMA (11% MA)
  Flux Thru Human Skin: 15.1 ug/cm^2 /day
[3]; without membrane, 35% PVC resin, 60% ADMEX 760
  Flux Thru Human Skin: 34.5 ug/cm^2 /day

## Clc1cccc(Cl)c1NC1=NCCN1 [clonidine]
[4]
  effect of copolymeric EMA membranes on drug diffusion rates in the transdermal patch: lower the drug diffusion rates in the transdermal patch even at higher clonidine concentrations
[5]
  solubility in mineral oil: approximately 0.5 mg/ml
